Data set [1] can be described thus: Photophysical measurements of photosensitizers (λmax, ε, φ f). It counts as physicochemical. The arrangement: λmax: unit not given here. The conditions noted are these: for ε: at λmax; for λmax: band I absorption maximum.
The test system of another data set is BA mammary carcinoma. The experiment in a line: In vivo assay of photosensitizers on tumors (PDT tumor cure). The conditions noted are these: treatment 24 post injection, light dose 200 J/cm^2, n = 10. The arrangement: species or system C3H/HeJ mice. The procedure:
Female C3H/HeJ mice (8-9 weeks old) were subjected to trochar implantation of BA mammary carcinoma on the hind leg of the animals. Animals having tumors ca 5 mm in diameter were entered into the in vivo screen. For each new photosensitizer, a group of at least three mice were used to ascertain a drug dose that caused a response as described in table 3 when treated with the appropriate wavelength of light. Generally in this series, animals were injected with 1 μ mole of sensitizer/Kg of body weight, formulated in egg yolk phosphatidate (EYP), via the tail vein. At a defined time period later the animals were irradiated with light from a laser source tuned to the wavelength of activation of the sensitizer. The power density of the laser was set at 75 mW/cm^2 with a total light dose of 200 J/cm^2.

A further data set has as its system V-79 cells. The experiment in a line: Cellular uptake of photosensitizer. It counts as in vitro ADME, Chinese hamster. The following applies: 10 μM photosensitizer in EYP. The procedure:
(§1) For the Biological Evaluation, Chinese hamster lung fibroblasts (V-79) obtained from the American Tissue Culture Collection were grown in D-MEM supplemented with 10% fetal calf serum at 37° C., 5% CO2, and 95% humidity. These cells were used to evaluate the sensitizers for dark and light toxicity, and cellular uptake. Medium was replaced with 5% fetal calf serum supplemented medium during sensitizer incubations.
Several photosensitizers were screened by a standard cellular uptake protocol. A 10 μM stock solution of photosensitizer in EYP was prepared by dilution of the photosensitizer stock (1 mM) using 5% dextrose solution. […] Following incubation the cells were washed with PBS (1 mL) three times, then washed with HBSS (1 mL) and detached using 100 μL of trypsin. Individual wells containing cells were lysed by three freeze thaws.
Spiking experiments were performed to confirm that the sensitizer could be adequately recovered using standard procedures. The sensitizer was then extracted from the cell debris with DMSO, centrifuged and the supernatant examined for fluorescence. Sensitizer concentration was determined by comparison to a standard curve. Results are expressed in ug/ug protein. Untreated monolayers are used to determine cell count. Treated cells of each time point were used to determine the protein concentration using the BCA assay. Results shown are the mean of the three experiments for each timepoint.

Data set [2] has as its system Chinese hamster lung fibroblasts (V-79). The experiment in a line: DC(50)(light): colony-formation phototoxicity after laser irradiation. The class given is cell-based. The conditions noted are these: V-79 cells; sensitizer incubation 16-24 hours; 12.5 mW/cm^2, total light dose 1.25 J/cm^2; concentration for lethal damage to 50% of cells. How it is done:
as §1
In the first phase, the combination of intracellular and extracellular concentration of photosensitizer required for lethal damage to 50% of the cells in culture (DC(50)) on light exposure was determined by plating cells at a density of 100 cells/cm^2 and incubating for 1-3 hours to allow attachment of the cells. Cells were incubated with various concentrations of sensitizer ([C]=0.01-1.0 μM) delivered in non-toxic concentrations of DMSO/5% dextrose solution or in some cases in egg yolk phosphatidase (EYP) for 16-24 hours. The cells were then irradiated with laser light using a tunable Lexel argon pumped dye laser at the band I absorption of the photosensitizer. Total power density was adjusted to 12.5 mW/cm^2 and a total light dose of 1.25 J/cm^2 was applied. After treatment, cells were washed with HBSS, refed with 10% FBS supplemented DMEM with phenol red and incubated for 3-5 days to allow colony formation. Cells were fixed in methanol, stained with Giemsa, and colonies were counted. Plating efficiency was determined using a control colony and the mean percent survival fraction plotted against the sensitizer concentration and the DC50 established (Table 5).

As a reminder, the IC50 is the concentration that inhibits the measured activity by half.

Consider `CCC1=C(CC)c2cc3[nH]c(c(CC)c3CC)c3cc(S(=O)(=O)NCCCO)cc4c3nc(cc3[nH]c(cc1n2)c(CC)c3CC)C4(CC)CC` [Compound 2, OEBCSO2NH(CH2)3OH], for which, in data set [1], the φ f was determined as 0.230, the ε is 34,000 M^−1 cm^−1 and the λmax turned out to be 665. The “% Cure (30 days)” value with BA mammary carcinoma (drug dose 2.5 μm/Kg via tail vein in EYP) came to 80%. Besides, in the data set with V-79 cells, the “Cellular uptake (24 hrs)” value is on record as 0.129 ρmole/μg protein. In addition, the IC50 in data set [2] was 500 to 1000 nM.
For `CCC1=C(CC)C2=NC1=Cc1c(CC)c(CC)c3[n]1[In]([Cl])[n]1c(c(CC)c(CC)c1=c1cccc4c1=NC(=C3)C4(CC)CC)=C2` [Compound 9, In Octaethylbenzochlorin], in data set [1], the φ f was 0.028, the ε was 53,000 M^−1 cm^−1 and the λmax was found to be 691. Besides, the “% Cure (30 days)” value with BA mammary carcinoma (drug dose 0.1 μm/Kg via tail vein in EYP) stood at 70%. For the same compound, the “Cellular uptake (24 hrs)” value in the data set with V-79 cells is on record as 0.336 ρmole/μg protein. For the same compound, the IC50 in data set [2] was found to be 100 nM.
In the case of tin octaethylbenzochlorin [Compound 6], in data set [1], the φ f was found to be 0.044, the ε is recorded as 54,000 M^−1 cm^−1 and the λmax is recorded as 691. Moreover, in the data set with BA mammary carcinoma (drug dose 0.75 μm/Kg via tail vein in EYP), the “% Cure (30 days)” value was 80%. Besides, the “Cellular uptake (24 hrs)” value with V-79 cells was 0.501 ρmole/μg protein. The half-maximal inhibitory concentration (IC50) in data set [2] lay within 80 to 160 nM.

The record behind these values is patent US6444194B1, “Indium photosensitizers for PDT” (Miravant Pharmaceuticals, Inc., priority 1997, dated 2002).
